Assay results taken from patent publication US20070225363A1, “Methods and Agents for Inhibiting Dynamin-Dependent Endocytosis” (the University of Newcastle Research Associates Ltd., priority 2003, published 2007).
Entries after “also recorded” stand apart in the source; their conditions may differ.

Tests used:
dynamin I [1] = biological target: T1, dynamin I (Ovis aries, UniProt A0ACI6NZN1); assay: Dynamin I GTPase assay ([γ-32P]GTP hydrolysis); assay type: biochemical, sheep
Description: (§1) The plasmid for GST-Amph2-SH3 (muscle Amph2) (Butler et al., 1997) was provided by Pieto DeCamilli, Yale, Connecticut, USA, in pGEX2T vectors. The plasmid was grown in E. coli and the GST-Amph2-SH3 fusion protein was purified on glutathione (GSH)-Sepharose by elution with 10 mM reduced GSH in 20 mM Tris-HCl, pH 7.5, dialysed against the same buffer without GSH and stored at 4° C. Dynamin was purified from sheep brain by extraction from the peripheral membrane fraction of whole brain (Robinson et al., 1993) and affinity purification on GST-Amph2-SH3-sepharose as previously described (Marks and McMahon., 1998), yielding 8 mg protein from 250 g sheep brain. Recombinant dynamin II was expressed in insect cells and was a gift from Dr Sandra Schmid (Scripps, San Diego, Calif.). Recombinant dynamin I lacking the PH domain (dynamin PH, provided by Robin Scaife) was expressed in insect cells using baculoviral infection (Salim et al., 1996).
(§2) Dynamin GTPase activity was determined by hydrolysis of [ ? -^32P]GTP by a method modified from that described previously (Robinson et al., 1993). Briefly, purified dynamin I or dynamin II (0.2 μg/tube) was incubated in GTPase buffer (10 mM Tris, 10 mM NaCl, 2 mM Mg^2+, 0.05% Tween 80, pH 7.4, 1 μg/ml leupeptin and 0.1 mM PMSF) and a GTP cocktail containing 0.3 mM GTP and 1.3 μCi [ ? -^32P]-GTP in the presence or absence of varying concentrations of inhibitors or DMSO vehicle for 10 min at 30 C. The final assay volume was 40 μl. Dynamin activity was measured as either basal or phospholipid-stimulated with the addition of 5 μg/ml L-phosphatidylserine. The reaction was terminated with 100 μl of GTPase stop buffer (2% formic add, 8% acetic acid, pH 1.9), followed by 600 μl of acid-washed charcoal solution (7% charcoal in acidic solution (w/v)) and 100 μl BSA (5 mg/ml). After centrifuging for 5 min (13,000 rpm at room temperature), 200 μl of each supernatant was counted in a -counter for the release of ^32Pi from [ ? -^32P]-GTP.

dynamin II = assay: [α-32P]-GTP binding assay, dynamin II
Description: (§3) The [α-^32P]-GTP-binding assay was performed in the wells of a 96-well microtitre plate. Dynamin (0.2 μg/well) was added to GTPase buffer and incubated for 10 min at 4 C in the dark. [α-^32P]-GTP (2 μCi/tube) was then added to the reaction and incubated for a further 10 min at 4 C. in the dark. The microtitre plate was then irradiated with a short wavelength ultraviolet lamp at […] for 30 min at a distance of 8 cm. The specificity of photolabelling was determined by comparing the labelling in the presence and absence of 1 mM cold GTP. Samples were then applied to nitrocellulose membranes by aspiration through the wells of a 24 well slot blotter. The nitrocellulose was washed 3 times with PBS and dried. Bound nucleotide was detected by a phosphorimager (Molecular Dynamics).

ΔPH domain dynamin I = assay: GTPase assay with recombinant dynamin I lacking the PH domain; assay type: biochemical
Description: as §1
as §2, with “-^32P]-GTP. […]” for “-^32P]-GTP.”

dynamin I [2] = biological target: T1, dynamin I; assay: [α-32P]-GTP binding assay, dynamin I; set-up: species or system sheep
Description: as §3

Arf2 = assay: [α-32P]-GTP binding to small G protein Arf2; details: data not shown
Description: (§4) Competition of these drugs with GTP for the active site of 4 small G proteins (Rab3A, Ras, Arf2, RalA) was also tested.

[3] = system: isolated nerve terminals (synaptosomes); assay: Synaptic vesicle endocytosis, FM2-10 uptake in synaptosomes; assay type: cell-based, rat; details: 100 μM
Description: Isolated nerve terminals (synaptosomes) were prepared from rat cerebral cortex by centrifugation on discontinuous percoll gradients (Dunkley et al., 1986). Fractions 3 and 4 were pooled and used in all experiments. Endocytosis was measured using uptake of the fluorescent dye FM2-10 as previously described (Cousin and Robinson 2000a). Synaptosomes (0.6 mg in 2 ml) were incubated for 5 min at 37° C. in plus or minus Ca^2+ Krebs-like solution. FM2-10 ([…]) was added 1 min before stimulation with 30 mM KCl (S1). As FM2-10 is taken up by vesicles via endocytosis at the S1 phase of stimulation, synaptosomes were incubated with antagonists during this phase. […] After 2 min of stimulation synaptosomes were washed twice in plus Ca^2+ solution containing 1 mg/ml bovine serum albumin. The washing steps remove non-internalised FM2-10 and the tyrphostins. Washed synaptosomes were resuspended in plus Ca^2+ solution at 37° C., transferred to a fluorimeter cuvette and stimulated with a standard addition of 30 mM KCl (S2). The standard S2 stimulation releases all accumulated FM2-10 and allows endocytosis to be measured as the decrease in FM2-10 fluorescence due to dye release into solution (excitation 488 nm, emission 540 nm).
Endocytosis was calculated as the decrease in absolute fluorescence stimulated by 30 mM KCl at S2. […] Retrieval efficiency is a more accurate measure of endocytosis since it takes into account the amount of prior exocytosis. Retrieval efficiency was calculated as endocytosis/exocytosis, where endocytosis is defined as above and exocytosis as Ca^2+-dependent glutamate release after 2 min of stimulation. The retrieval efficiency value was normalised to a ratio of 1.0 for 30 mM KCl.

Ras = assay: [α-32P]-GTP binding to small G protein Ras; details: data not shown
Description: as §4

HER14 cells = assay: Texas Red-transferrin uptake in HER14 cells; assay type: cell-based; details: drug added 15 or 60 minutes before Tf-TxR
Description: (§5) Transferrin (Tf) uptake was analysed in Swiss 3T3 and HER14 cells based on methods previously described (van der Bliek et al., 1993). Briefly, cells were plated to 60% confluency in DMEM medium plus 10% foetal calf serum after which the cells were incubated overnight (8-10 hours) in DMEM minus foetal calf serum. Texas red-transferrin (Tf-TxR, Molecular Probes, Oregon) was added to a final concentration of 5 μg/ml and the cells incubated at 37° C. for 10 minutes. Cell surface staining was removed by incubating the cells in an ice cold acid wash solution (0.2 M acetic acid +0.5 M NaCl, pH 2.8) for 15 minutes. Cells were immediately fixed with 4% paraformaldehyde for 10 minutes then washed 3 times with PBS. Nuclei were stained using DAPI (Molecular Probes, Oregon). Slides were mounted using DABCO and the fluorescence was monitored using a Leica DMLB bright field microscope and SPOT digital camera.

Swiss 3T3 cells = assay: Texas Red-transferrin uptake in Swiss 3T3 cells; assay type: cell-based; details: drug added 15 or 60 minutes before Tf-TxR
Description: as §5

[4] = system: isolated nerve terminals (synaptosomes); assay: Glutamate release assay (exocytosis) in synaptosomes; assay type: cell-based, rat; details: 30 mM KCl
Description: The glutamate release assay was performed using enzyme-linked fluorescent detection of released glutamate (Cousin and Robinson., 2000a, b). Briefly, synaptosomes (0.6 mg in 2 ml) were resuspended in either plus (1.2 mM CaCl2) or minus (1 mM EGTA) Ca^2+ Krebs-like solution (118.5 mM NaCl, 4.7 mM KCl, 1.18 mM MgCl2, 0.1 mM Na2HPO4, 20 mM Hepes, 10 mM glucose, pH 7.4) at 37° C. Experiments were started after addition of 1 mM NADP^+. After 1 minute 50 U of glutamate dehydrogenase was added and the synaptosome suspension was stimulated after 4 minutes with 30 mM KCl. Increases in fluorescence due to production of NADPH were monitored in a Perkin-Elmer LS-50B spectrofluorimeter at 340 nm excitation and 460 nm emission. Experiments were standardised by the addition of 4 nmol of glutamate. Data is presented as Ca^2+-dependent glutamate release, calculated as the difference between release in plus and minus Ca^2+ solution for identical stimulation conditions.

Rab3A = biological target: T2, Rab3A (Homo sapiens, UniProt P20336); assay: [α-32P]-GTP binding to small G protein Rab3A; details: data not shown
T2 sequence (P20336 1-220): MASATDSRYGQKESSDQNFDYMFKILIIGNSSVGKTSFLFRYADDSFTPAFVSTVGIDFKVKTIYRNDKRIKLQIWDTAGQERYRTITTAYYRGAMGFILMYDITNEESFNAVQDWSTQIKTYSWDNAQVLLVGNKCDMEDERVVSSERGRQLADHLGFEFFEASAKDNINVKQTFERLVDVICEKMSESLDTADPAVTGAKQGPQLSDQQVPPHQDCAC
Description: as §4

RalA = biological target: T3, RalA (Homo sapiens, UniProt P11233); assay: [α-32P]-GTP binding to small G protein RalA; details: data not shown
T3 sequence (P11233 1-206): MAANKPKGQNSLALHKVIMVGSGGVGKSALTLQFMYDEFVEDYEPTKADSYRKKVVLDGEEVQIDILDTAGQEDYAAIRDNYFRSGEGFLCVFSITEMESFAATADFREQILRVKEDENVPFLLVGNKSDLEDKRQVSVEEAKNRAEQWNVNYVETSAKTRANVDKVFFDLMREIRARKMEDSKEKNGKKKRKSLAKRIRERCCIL
Description: as §4

T1 sequence (A0ACI6NZN1 entry or part of it): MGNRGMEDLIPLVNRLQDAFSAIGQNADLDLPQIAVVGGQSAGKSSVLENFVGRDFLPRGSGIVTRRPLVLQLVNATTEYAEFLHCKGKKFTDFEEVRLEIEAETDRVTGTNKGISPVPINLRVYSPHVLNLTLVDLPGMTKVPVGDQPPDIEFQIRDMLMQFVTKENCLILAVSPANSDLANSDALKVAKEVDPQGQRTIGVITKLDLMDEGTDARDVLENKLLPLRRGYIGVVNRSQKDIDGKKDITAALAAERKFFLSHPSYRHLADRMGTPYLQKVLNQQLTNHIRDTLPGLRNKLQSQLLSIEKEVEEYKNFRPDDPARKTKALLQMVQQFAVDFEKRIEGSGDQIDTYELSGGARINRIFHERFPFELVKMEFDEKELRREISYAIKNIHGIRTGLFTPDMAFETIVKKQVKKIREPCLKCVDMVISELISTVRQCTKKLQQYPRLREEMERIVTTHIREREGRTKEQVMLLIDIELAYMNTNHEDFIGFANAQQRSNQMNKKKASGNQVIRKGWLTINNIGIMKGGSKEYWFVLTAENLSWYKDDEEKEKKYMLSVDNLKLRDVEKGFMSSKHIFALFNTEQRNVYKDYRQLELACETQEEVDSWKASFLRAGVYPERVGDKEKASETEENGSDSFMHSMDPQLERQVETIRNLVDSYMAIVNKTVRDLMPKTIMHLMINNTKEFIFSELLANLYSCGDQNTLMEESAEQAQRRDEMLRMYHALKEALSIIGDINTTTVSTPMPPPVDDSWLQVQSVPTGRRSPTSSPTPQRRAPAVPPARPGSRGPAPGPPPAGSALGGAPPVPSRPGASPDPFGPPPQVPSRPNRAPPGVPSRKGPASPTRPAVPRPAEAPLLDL

Work on COc1cc(C=C(C#N)C(=O)NCCCNC(=O)C(C#N)=Cc2cc(O)c(O)c(OC)c2)cc(O)c1O [Compound 24, 2-Cyano-N-{3-[2-cyano-3-(3,4-dihydroxy-methoxyphenyl)-acryloylamino]-propyl}-3-(3,4-dihydroxy-5-methoxyphenyl)-acrylamide] yielded an IC50 (dynamin I [1]; library 1 (dimeric) compounds) of 5 ± 1 µM.

In the case of CN(C)CCCn1cc(C2=C(c3c[nH]c4ccccc34)C(=O)NC2=O)c2ccccc21 [BIM I], the “[α-32P]-GTP binding to dynamin II in the presence of drug” value (dynamin II) is reported as “compete with GTP”, the “ability to inhibit GTPase activity of dynamin I lacking the PH domain” value (ΔPH domain dynamin I) is reported as “lost its ability to inhibit” and the “[α-32P]-GTP binding to dynamin I in the presence of drug” value (dynamin I [2]) is reported as “compete with GTP”.

In the case of N#C/C(=C\c1ccc(O)c(O)c1)C(N)=S [tyrphostin A47], the “effect on [α-32P]-GTP binding to Arf2” value (Arf2) is reported as “neither drug affected”, the “inhibition of synaptic vesicle endocytosis (SVE)” value ([3]; synaptosomes) is reported as “did not” and the “retrieval efficiency (endocytosis/exocytosis)” value ([3]; 1 indicates no drug effect) is reported as 0.95 (±0.05). For the same molecule, the “effect on [α-32P]-GTP binding to Ras” value (Ras) was “neither drug affected”, the “internalisation of texas-red labelled transferrin into HER14 cells” value (HER14 cells) was “not as dramatically as bis-tyrphostin” and the “internalisation of texas-red labelled transferrin into Swiss 3T3 cells” value (Swiss 3T3 cells) was “not as dramatically as bis-tyrphostin”. The “[α-32P]-GTP binding to dynamin I in the presence of drug” value (dynamin I [2]) was “not seen to decrease; also recorded: not affected”, the “exocytosis (Ca2+-dependent glutamate release)” value [4] was “no effect” and the “effect on [α-32P]-GTP binding to Rab3A” value (Rab3A) was “neither drug affected”. The “effect on [α-32P]-GTP binding to RalA” value (RalA) was “neither drug affected”, the “inhibitory potency on dynamin” value (dynamin I [1]; freshly prepared solutions) was “no inhibitory potency” and the “inhibitory potency on dynamin” value (dynamin I [1]; stocks kept at room temperature for 24 hrs) was “weak potency”.

In the case of N#C/C(=C\c1ccc(O)c(O)c1)C(=O)N1CCN(C(=O)/C(C#N)=C/c2ccc(O)c(O)c2)CC1 [Compound 71], the dynamin inhibition (dynamin I [1]; screen at ≦100 μM) is reported as “no dynamin inhibition”.

In the case of O[C@H](CS)[C@H](O)CS (racemic) [Dithiothreitol, dithiothreitol], the “effect on dynamin GTPase activity” value (dynamin I [1]; alone, data not shown) is reported as “without effect”.
